The values that follow come from article PMC12722964, “Immunogenicity risk assessment of peptide-related impurities identified in generic teriparatide products” (Frontiers in Immunology, 2025).

One series deals with HLA-DRB1*0701 (Homo sapiens, UniProt P01903+P01911, A100R/A102G/A103Q/D57E/D86V/E43K/F76Y/K127E/L162R/M171V/P40G/Q125H/Q99D/R33Q/R42Y/R54Q/S133A/S66F/T210M/V115G/Y107V/Y59L/Y89S). The series can be described thus: Class II HLA binding assay. The following applies: Figure 6; shortened peptides of Table 3; category by IC50; read-out: HLA binding affinity category, DRB1*0701. How it is done:
(§1) Class II HLA binding assays used in these studies measure the binding affinity of a target peptide to HLA-DRB1*0101, HLA-DRB1*0301, HLA-DRB1*0401, HLA-DRB1*0701, HLA-DRB1*0901, HLA-DRB1*1101, HLA-DRB1*1301, and HLA-DRB1*1501. The HLA binding assay was originally described by Steere et al. ([21]) and adapted by EpiVax ([22], [23]). Briefly, unlabeled test peptides were incubated overnight to equilibrium with a soluble HLA-DR molecule (Benaroya Research Institute, Seattle, WA, USA) and a biotinylated, allele-specific competitor peptide of known binding affinity. The binding reaction was then neutralized with a buffered pH change, and the peptide-HLA complexes were transferred to a 96-well plate coated with a pan-HLA-DR antibody, clone L243 (BioLegend, San Diego, CA, United States), and incubated overnight. The following day, plates were resolved with the addition of europium-labeled streptavidin (Perkin-Elmer, Waltham, MA, USA). An indirect measure of binding was determined by time-resolved fluorescence. Each peptide was evaluated in triplicate over a range of seven concentrations. The percent inhibition values for each experimental peptide across this concentration range were used to calculate an IC50, the concentration at which the peptide inhibits 50% of the labeled competitor peptide.
(§2) Following the in silico analysis, epitope binding predictions by EpiMatrix were evaluated in vitro by measuring the binding affinity of each impurity peptide relative to the corresponding N- or C-terminal portion of the TPT API, in vitro. The class II HLA-DRB1 binding assay was adapted from an assay originally described by Steere et al. ([21]) that provides an indirect measurement of peptide-HLA affinity. Class II HLA binding peptides typically range in length from 12–20 amino acids; however, the core HLA binding region is nine amino acids. The class II HLA binding groove is open-ended, and the additional flanking residues on either end of the core binding motif stabilize the peptide: HLA binding interaction. Targeted binding motifs were properly centered within the shorter length peptides synthesized for these binding studies (Table 3).

The next series concerns the target T1, HLA-DRB1*0301 (Homo sapiens, UniProt P01903+P01911, A100K/A102G/A103R/A169T/F55Y/I96L/K41T/L162R/M171V/P40S/Q125H/Q178H/Q39Y/R42S/S66N/T106N/T262R/W38E/Y61H).
T1 construct: incubated overnight to equilibrium with a soluble HLA-DR molecule; purchased Benaroya Research Institute, Seattle, WA, USA
The series can be described thus: Class II HLA binding assay. Conditions: Figure 6; shortened peptides of Table 3; category by IC50; read-out: HLA binding affinity category, DRB1*0301. How it is done: as §1, §2

Another series has as its target T2, HLA-DRB1*0101 (Homo sapiens, UniProt P01903+P01911, A100R/D57E/F55L/F60I/F76Y/I96L/L162R/M171V/P40L/Q125E/R42F/V115G/Y59C).
T2 construct: incubated overnight to equilibrium with a soluble HLA-DR molecule; purchased Benaroya Research Institute, Seattle, WA, USA
The series can be described thus: Class II HLA binding assay. The following applies: Figure 6; shortened peptides of Table 3; category by IC50; read-out: HLA binding affinity category, DRB1*0101. The procedure: as §1, §2

Another series addresses HLA-DRB1*1301 (Homo sapiens, UniProt P01903+P01911, A100E/A169T/K41T/L162R/M171V/P40S/Q125H/Q178H/Q39Y/Q99D/R42S/S66N/T262R/W38E/Y61H). The experiment in a line: Class II HLA binding assay. The following applies: Figure 6; shortened peptides of Table 3; category by IC50; read-out: HLA binding affinity category, DRB1*1301. The procedure:
as §1, §2

Another series concerns the target HLA-DRB1*0901 (Homo sapiens, UniProt P01903+P01911, A100R/A103E/D57H/D86V/F55Y/F60I/F76Y/I96F/K127E/L162R/M171V/P40D/Q125H/Q99R/R33Q/R42F/S133A/S66N/T210M/V115G/W38K/Y107V/Y59G/Y89S). The series can be described thus: Class II HLA binding assay. Conditions: Figure 6; shortened peptides of Table 3; category by IC50; read-out: HLA binding affinity category, DRB1*0901. The procedure:
as §1, §2

In the next series the target is T3, HLA-DRB1*1501 (Homo sapiens, UniProt P01903+P01911).
T3 construct: incubated overnight to equilibrium with a soluble HLA-DR molecule; purchased Benaroya Research Institute, Seattle, WA, USA
The series can be described thus: Class II HLA binding assay. The following applies: Figure 6; shortened peptides of Table 3; category by IC50; read-out: HLA binding affinity category, DRB1*1501. How it is done:
as §1, §2

For another series, the target named is HLA-DRB1*1101 (Homo sapiens, UniProt P01903+P01911, A100R/A169T/A87E/I96F/K41T/L162R/M171V/P40S/Q125H/Q178H/Q39Y/Q99D/R42S/S66Y/T262R/V115G/W38E). The series can be described thus: Class II HLA binding assay. Conditions: Figure 6; shortened peptides of Table 3; category by IC50; read-out: HLA binding affinity category, DRB1*1101. How it is done: as §1, §2
For another series, the target named is T4, HLA-DRB1*0401 (Homo sapiens, UniProt P01903+P01911, A100K/A169T/F76Y/I96L/K127E/L162R/M171V/N62H/P40V/Q125Y/R42H/S133A/S149N/S66Y/V115G/V209L/W38E).
T4 construct: incubated overnight to equilibrium with a soluble HLA-DR molecule; purchased Benaroya Research Institute, Seattle, WA, USA
The experiment in a line: Class II HLA binding assay. Conditions: Figure 6; shortened peptides of Table 3; category by IC50; read-out: HLA binding affinity category, DRB1*0401. How it is done: as §1, §2

Series [1] deals with eight class II Supertype Alleles (HLA-DRB1). The series can be described thus: Class II HLA binding assay, summary over the panel of eight alleles. Set-up: species or system human. How it is done: as §1
as §2, with “Targeted binding motifs were properly centered within the shorter length peptides synthesized for these binding studies (Table 3).” left out

Series [2] in a line: Overall risk based on in silico and in vitro results. The following applies: EpiMatrix and JanusMatrix scores compared with naïve donor T-cell assay. The text has this:
Table 4 Overall risk based on in silico and in vitro results. | column: Overall risk

The conditions of series [3]: human, in vivo; cited from earlier work. The text has this:
Teriparatide (TPT), sold under the brand name Forteo®, is a 34-amino acid peptide drug produced by recombinant DNA (rDNA) technology. Synthetic peptide versions of the drug have recently been approved for the generic drug market. TPT consists of the biologically active N-terminal 34 amino acids of human parathyroid hormone (PTH) (Figure 1) and is approved in the USA for the treatment of postmenopausal osteoporosis in patients at high risk of bone fracture. Since TPT’s sequence is identical to that of the N-terminus of PTH, the development of antibodies that cross-react with the endogenous hor ... || TPT has a history of having low immunogenicity in the clinic, with only 2.8% of treated patients developing antidrug antibodies after 12 months of treatment. Consistent with this, TPT induced IFN-γ production by responding T cells in fewer than 20% of donor cell preparations ex vivo. However, because different impurities can arise from different methods of peptide synthesis and production, it is important to understand whether any peptide-related impurities could contribute to the immunogenicity risk of generic TPT. Here, we performed an immunogenicity risk assessment for several peptide-relat ...

A further series deals with B cells. Set-up: method as in 2 sources, one per row (each row's own in cited_ref): ref Howard et al. ([38]) ||| ref [37] = [37]; 37 Howard KE . ( 2025 ). Alternative models: from humanized mice to microphysiological systems and beyond , in: Scientific and Regulatory Considerations for Assessment of Immunogenicity Risk for Gener. Conditions: cited from earlier work.

Ends that are not written are not given here.

HLA-DRB1*1101, sequence (P01903 26-254 limits assumed, other chains not shown): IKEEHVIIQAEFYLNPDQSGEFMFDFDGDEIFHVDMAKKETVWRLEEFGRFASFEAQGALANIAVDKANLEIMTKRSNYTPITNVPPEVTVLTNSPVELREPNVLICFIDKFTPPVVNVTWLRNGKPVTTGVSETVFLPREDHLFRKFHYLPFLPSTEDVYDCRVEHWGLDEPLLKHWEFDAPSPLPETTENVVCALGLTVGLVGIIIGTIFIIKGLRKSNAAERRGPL

Regarding “MERVEWLRKKQDVHNF [DES-LEU28_TPT (18-33)]”, the IC50 was greater than 100 µM on HLA-DRB1*0701; greater than 100 µM at HLA-DRB1*0301; greater than 100 µM at HLA-DRB1*0101; 0.1 to 1 µM at HLA-DRB1*1301; greater than 100 µM at HLA-DRB1*0901; no less than 100 µM on HLA-DRB1*1501. Moreover, the IC50 is 1 to 10 µM on HLA-DRB1*1101 and greater than 100 µM on HLA-DRB1*0401.

“MERVEWLRKKLQDVHNF-OH [API_TPT (18-34) C-term]”: the “number of the eight class II Supertype Alleles bound” value in series [1] (of eight alleles evaluated, negligible to high affinity counted as bound) is given as “three”. Besides, the IC50 on HLA-DRB1*0701 was greater than 100 µM; on HLA-DRB1*0301, greater than 100 µM; at HLA-DRB1*0101 it was greater than 100 µM; at HLA-DRB1*1301 it was 1 to 10 µM; at HLA-DRB1*0901 it was greater than 100 µM; on HLA-DRB1*1501, no less than 100 µM. In addition, the IC50 at HLA-DRB1*1101 is 0.1 to 1 µM; on HLA-DRB1*0401, greater than 100 µM.

As for “SVSEIQLMHN–GKHLNSMERVEWLRKKLQDVHNF [DES-LEU11_TERIPARATIDE, observed teriparatide impurity, deletion of Leu11]”, the Overall risk entry in [2] is listed as “High”.

Turning to “SVSEIQLM–NLGKHLNSMERVEWLRKKLQDVHNF [DES-HIS9_TERIPARATIDE, observed teriparatide impurity, deletion of His9]”, in series [2], the Overall risk result is “High”.

For “SVSEIQLMHNLGKHLNSMERVEWLR(K-Ac)KLQDVHNF [LYS-AC26_TERIPARATIDE, observed teriparatide impurity, Lys26 acetylated]”, in series [1] (shorter peptide with the modification centered), the “classification in the HLA binding assays” value is reported as “nonbinder”. Besides, the Overall risk result in series [2] was “High”.

As to “MERVEWLRK(Ac)KLQDVHNF [LYS-AC26_TPT (18-34)]”, the IC50 on HLA-DRB1*0701, on HLA-DRB1*0301, at HLA-DRB1*0101, on HLA-DRB1*1301, at HLA-DRB1*0901 and at HLA-DRB1*1501 was greater than 100 µM in each case. Further, the IC50 at HLA-DRB1*1101 and at HLA-DRB1*0401 was greater than 100 µM each time.

Take “SVSEIQLMHNLG–HLNSMERVEWLRKKLQDVHNF [DES-LYS13_TERIPARATIDE, observed teriparatide impurity, deletion of Lys13]”: the Overall risk result in [2] is given as “High”.

Take “SVSEIQLMHNL–KHLNSMERVEWLRKKLQDVHNF [DES-GLY12_TERIPARATIDE, theoretical teriparatide impurity predicted by WhIM, deletion of Gly12]”: the Overall risk entry in series [2] is “High”.

As to “SVSEIQLMHNLGKHLNSMERVEWLRKKLQDVHNF [TERIPARATIDE, teriparatide]”, the Overall risk result in [2] is given as “Low”. For the same substance, the “treated patients developing antidrug antibodies (ADA)” value in series [3] was 2.8%. For the same substance, in the series with B cells (at multiple doses, in contrast to SCT, ref Howard et al. ([38])), the “immunogenicity (as measured by activation of B cells)” value is given as “lower immunogenicity”.

For the substance “SVSEIQLMHNLGK–LNSMERVEWLRKKLQDVHNF [DES-HIS14_TERIPARATIDE, observed teriparatide impurity, deletion of His14]”, the Overall risk result in [2] was “High”.

“SVSEIQ–MHNLGKHLNSMERVEWLRKKLQDVHNF [DES-LEU7_TERIPARATIDE, observed teriparatide impurity, deletion of Leu7]”: the “binding affinity compared to the corresponding region of the API” value in series [1] (impurity peptides alongside N-term or C-term TPT API peptide) was “decreased or equivalent binding affinity”. Further, in series [2], the Overall risk result is on record as “Medium”.

Consider “SVSEIQLMHNLLGKHLNSMERVEWLRKKLQDVHNF [ENDO-LEU11_TERIPARATIDE, theoretical teriparatide impurity predicted by WhIM, duplication of Leu11]”, for which, in series [2], the Overall risk result is reported as “High”.

As for salmon calcitonin [SCT], in the series on B cells (SCT-treated mice compared to TPT, ref [37]), the “long-term memory B cells and plasma cells” value is listed as “Increased numbers”.

For “SVSEIQLMHNLGKHLNSMERVEWLRKK–QDVHNF [DES-LEU28_TERIPARATIDE, observed teriparatide impurity, deletion of Leu28]”, the Overall risk entry in series [2] is given as “Low”.
